Activity calls are given as the source filed them. The rule behind the calls is not given here.
Tests used:
[1] = target: T1, Chitinase B (Serratia marcescens) (UniProt P11797); assay: Inhibition of Serratia marcescens chitinase b catalytic domain overexpressed in Escherichia coli BL21(DE3) cells at 1 uM using 4MU-(GlcNAc)2 as substrate after 30 mins by fluorescence based microplate reader analysis
T1 sequence (whole entry): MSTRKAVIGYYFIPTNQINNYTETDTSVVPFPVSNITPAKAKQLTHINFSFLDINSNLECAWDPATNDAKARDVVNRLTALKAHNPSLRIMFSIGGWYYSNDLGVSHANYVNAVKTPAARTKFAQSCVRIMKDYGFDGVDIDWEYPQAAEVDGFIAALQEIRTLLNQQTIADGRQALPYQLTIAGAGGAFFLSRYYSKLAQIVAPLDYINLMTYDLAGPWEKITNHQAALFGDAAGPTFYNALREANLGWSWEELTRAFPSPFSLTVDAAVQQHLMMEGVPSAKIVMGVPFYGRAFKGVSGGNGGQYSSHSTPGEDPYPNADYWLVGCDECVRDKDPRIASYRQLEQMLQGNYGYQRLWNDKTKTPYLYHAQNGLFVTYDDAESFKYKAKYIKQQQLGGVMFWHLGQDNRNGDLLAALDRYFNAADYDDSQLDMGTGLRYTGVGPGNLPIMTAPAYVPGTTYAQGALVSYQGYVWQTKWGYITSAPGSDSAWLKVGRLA

[2] = target: Chitinase (Ostrinia furnacalis) (UniProt Q4AE59); assay: Inhibition of Ostrinia furnacalis chitinase h catalytic domain overexpressed in Pichia pastoris at 1 uM using 4MU-(GlcNAc)2 as substrate after 30 mins by fluorescence based microplate reader analysis
[3] = target: T2, Acidic mammalian chitinase (Homo sapiens, UniProt Q9BZP6); assay: Inhibition of human acidic mammalian chitinase catalytic domain overexpressed in Pichia pastoris at 10 uM using 4MU-(GlcNAc)2 as substrate after 30 mins by fluorescence based microplate reader analysis
Target sequence in this assay (Q9BZP6 22-476 limits assumed): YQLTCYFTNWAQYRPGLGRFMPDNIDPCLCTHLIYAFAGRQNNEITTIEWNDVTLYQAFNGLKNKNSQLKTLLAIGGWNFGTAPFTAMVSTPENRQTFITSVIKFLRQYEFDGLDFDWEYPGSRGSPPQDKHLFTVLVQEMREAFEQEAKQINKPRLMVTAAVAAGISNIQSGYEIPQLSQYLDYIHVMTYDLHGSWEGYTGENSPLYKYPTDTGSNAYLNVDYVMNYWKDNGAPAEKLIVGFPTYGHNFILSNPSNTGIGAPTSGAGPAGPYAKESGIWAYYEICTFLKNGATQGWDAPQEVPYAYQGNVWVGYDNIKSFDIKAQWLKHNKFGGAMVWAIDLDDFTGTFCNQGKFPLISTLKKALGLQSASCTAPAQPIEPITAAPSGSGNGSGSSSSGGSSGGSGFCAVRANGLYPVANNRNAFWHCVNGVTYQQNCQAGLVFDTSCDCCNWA

Chitotriosidase-1 [4] = target: T3, Chitotriosidase-1 (Homo sapiens, UniProt Q13231); assay: Inhibition of human CHIT1 catalytic domain overexpressed in Pichia pastoris at 10 uM using 4MU-(GlcNAc)2 as substrate after 30 mins by fluorescence based microplate reader analysis
Target sequence in this assay (Q13231 22-466 limits assumed): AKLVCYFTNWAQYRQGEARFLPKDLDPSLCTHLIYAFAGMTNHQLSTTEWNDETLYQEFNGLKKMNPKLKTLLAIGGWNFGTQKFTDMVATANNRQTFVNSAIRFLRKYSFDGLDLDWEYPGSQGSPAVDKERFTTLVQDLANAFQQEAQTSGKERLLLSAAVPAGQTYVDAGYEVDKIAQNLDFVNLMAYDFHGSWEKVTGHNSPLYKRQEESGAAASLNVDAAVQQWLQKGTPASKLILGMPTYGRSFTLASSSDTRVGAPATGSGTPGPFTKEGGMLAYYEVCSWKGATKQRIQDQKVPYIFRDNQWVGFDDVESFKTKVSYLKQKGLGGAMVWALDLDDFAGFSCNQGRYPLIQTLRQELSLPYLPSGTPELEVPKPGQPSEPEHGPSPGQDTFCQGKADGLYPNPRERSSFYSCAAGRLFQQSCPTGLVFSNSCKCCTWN

Chitinase B [5] = target: T4, Chitinase B (Serratia marcescens, UniProt P11797); assay: Binding affinity to Serratia marcescens chitinase b catalytic domain overexpressed in Escherichia coli BL21(DE3) cells by isothermal titration calorimetry
T4 sequence (P11797 whole entry): T1 sequence (whole entry)

[6] = target: T1, Chitinase B (Serratia marcescens); assay: Binding affinity to Serratia marcescens chitinase b catalytic domain overexpressed in Escherichia coli BL21(DE3) cells assessed as association constant by isothermal titration calorimetry
Chitotriosidase-1 [7] = target: T3, Chitotriosidase-1; assay: Binding affinity to human CHIT1 catalytic domain overexpressed in Pichia pastoris assessed by isothermal titration calorimetry
Target sequence in this assay (Q13231 whole entry, the tested form may be a part): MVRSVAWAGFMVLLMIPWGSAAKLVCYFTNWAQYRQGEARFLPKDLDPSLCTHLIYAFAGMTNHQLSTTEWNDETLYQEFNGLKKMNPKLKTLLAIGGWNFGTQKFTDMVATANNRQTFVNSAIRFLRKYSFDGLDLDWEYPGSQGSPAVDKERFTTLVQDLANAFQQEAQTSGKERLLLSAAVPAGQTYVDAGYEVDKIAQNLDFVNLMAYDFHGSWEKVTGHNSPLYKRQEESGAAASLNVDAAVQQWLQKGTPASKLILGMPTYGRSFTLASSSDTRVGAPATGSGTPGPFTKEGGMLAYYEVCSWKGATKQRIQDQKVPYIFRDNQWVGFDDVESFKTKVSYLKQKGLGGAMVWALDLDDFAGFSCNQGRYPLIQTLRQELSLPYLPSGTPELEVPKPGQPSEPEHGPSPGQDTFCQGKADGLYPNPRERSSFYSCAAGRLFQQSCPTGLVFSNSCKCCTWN

Chitotriosidase-1 [8] = target: T3, Chitotriosidase-1; assay: Binding affinity to human CHIT1 catalytic domain overexpressed in Pichia pastoris assessed as association constant by isothermal titration calorimetry
Target sequence in this assay (Q13231 22-466 limits assumed): as the sequence (Q13231 22-466 limits assumed) above

Chitinase B [9] = target: T4, Chitinase B; assay: Inhibition of Serratia marcescens chitinase b catalytic domain overexpressed in Escherichia coli BL21(DE3) cells using 4MU-(GlcNAc)2 as substrate after 30 mins by fluorescence based microplate reader analysis
Chitinase [10] = target: T5, Chitinase (Ostrinia furnacalis, UniProt Q4AE59); assay: Inhibition of Ostrinia furnacalis chitinase h catalytic domain overexpressed in Pichia pastoris using 4MU-(GlcNAc)2 as substrate after 30 mins by fluorescence based microplate reader analysis
[11] = target: Acidic mammalian chitinase (Mus musculus, UniProt Q91XA9); assay: Inhibition of mouse acidic mammalian chitinase catalytic domain overexpressed in Pichia pastoris using 4MU-(GlcNAc)2 as substrate after 30 mins by fluorescence based microplate reader analysis
Chitotriosidase-1 [12] = target: Chitotriosidase-1 (Mus musculus, UniProt Q9D7Q1); assay: Inhibition of mouse CHIT1 catalytic domain overexpressed in Pichia pastoris using 4MU-(GlcNAc)2 as substrate after 30 mins by fluorescence based microplate reader analysis
[13] = target: T2, Acidic mammalian chitinase; assay: Inhibition of human acidic mammalian chitinase catalytic domain overexpressed in Pichia pastoris using 4MU-(GlcNAc)2 as substrate after 30 mins by fluorescence based microplate reader analysis
Target sequence in this assay (Q9BZP6 whole entry, the tested form may be a part): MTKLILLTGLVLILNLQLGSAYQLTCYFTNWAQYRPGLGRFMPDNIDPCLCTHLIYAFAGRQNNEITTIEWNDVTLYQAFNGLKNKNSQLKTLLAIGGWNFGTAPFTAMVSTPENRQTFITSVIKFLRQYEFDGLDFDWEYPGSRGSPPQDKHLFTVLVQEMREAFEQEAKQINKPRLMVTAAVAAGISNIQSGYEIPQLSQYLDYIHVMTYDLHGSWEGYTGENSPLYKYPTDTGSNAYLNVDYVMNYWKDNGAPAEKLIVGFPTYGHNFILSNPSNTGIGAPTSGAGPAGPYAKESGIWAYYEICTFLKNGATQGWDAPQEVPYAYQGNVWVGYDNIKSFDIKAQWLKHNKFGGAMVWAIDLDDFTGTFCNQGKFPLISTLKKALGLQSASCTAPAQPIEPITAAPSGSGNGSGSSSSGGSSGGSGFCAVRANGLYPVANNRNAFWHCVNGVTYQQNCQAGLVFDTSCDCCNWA

Chitotriosidase-1 [14] = target: T3, Chitotriosidase-1; assay: Inhibition of human CHIT1 catalytic domain overexpressed in Pichia pastoris using 4MU-(GlcNAc)2 as substrate after 30 mins by fluorescence based microplate reader analysis
Target sequence in this assay (Q13231 whole entry, the tested form may be a part): as the sequence (Q13231 whole entry, the tested form may be a part) above

Chitinase [15] = target: T5, Chitinase; assay: Binding affinity to Ostrinia furnacalis chitinase h catalytic domain overexpressed in Pichia pastoris by isothermal titration calorimetry
Mus musculus [16] = assay: In vivo inhibition of human chitinase in C57BL/6 mouse assesed as reduction in bleomycin-induced chitinase level in BALF at 2 ug/mouse, ip administered for 11 days and measured on day 12 by necropsy analysis; format: functional
[17] = target: Chitotriosidase-1 (Mus musculus) (UniProt Q9D7Q1); assay: Inhibition of chitinase in mouse BALF at 40 ug using 4-MU-(GlcNAc)2 substrate as substrate after 15 mins relative to control
[18] = target: Chitotriosidase-1 (Mus musculus) (UniProt Q9D7Q1); assay: Inhibition of chitinase in mouse BALF at 1 ug using 4-MU-(GlcNAc)2 substrate as substrate after 15 mins relative to control
Mus musculus [19] = assay: Antifibrotic activity in bleomycin-induced C57BL/6 mouse model of pulmonary fibrosis assessed as effect on Chit1 expression at 2 ug/mouse, ip administered for 11 days and measured on day 12 post treatment by RT-qPCR analysis; format: functional, organism-based
Mus musculus [20] = assay: Antifibrotic activity in bleomycin-induced C57BL/6 mouse model of pulmonary fibrosis assessed as effect on Areg expression at 2 ug/mouse, ip administered for 11 days and measured on day 12 post treatment by RT-qPCR analysis; format: functional, organism-based
Mus musculus [21] = assay: Antifibrotic activity in bleomycin-induced C57BL/6 mouse model of pulmonary fibrosis assessed as effect on TGFbeta expression at 2 ug/mouse, ip administered for 11 days and measured on day 12 post treatment by RT-qPCR analysis; format: functional, organism-based
Mus musculus [22] = assay: Antifibrotic activity in bleomycin-induced C57BL/6 mouse model of pulmonary fibrosis assessed as effect on IL33 expression at 2 ug/mouse, ip administered for 11 days and measured on day 12 post treatment by RT-qPCR analysis; format: functional, organism-based
Mus musculus [23] = assay: Antifibrotic activity in bleomycin-induced C57BL/6 mouse model of pulmonary fibrosis assessed as effect on IL5 expression at 2 ug/mouse, ip administered for 11 days and measured on day 12 post treatment by RT-qPCR analysis; format: functional, organism-based
Mus musculus [24] = assay: Antifibrotic activity in bleomycin-induced C57BL/6 mouse model of pulmonary fibrosis assessed as effect on IL13 expression at 2 ug/mouse, ip administered for 11 days and measured on day 12 post treatment by RT-qPCR analysis; format: functional, organism-based
Mus musculus [25] = assay: Antifibrotic activity in bleomycin-induced C57BL/6 mouse model of pulmonary fibrosis assessed as increase in number of monocytes in lungs at 2 ug/mouse, ip administered for 11 days and measured on day 12 post treatment by flow cytometric analysis; format: functional, organism-based
Mus musculus [26] = assay: Antifibrotic activity in bleomycin-induced C57BL/6 mouse model of pulmonary fibrosis assessed as increase in number of PDL2+ alveolar macrophages in lungs at 2 ug/mouse, ip administered for 11 days and measured on day 12 post treatment by flow cytometric analysis; format: functional, organism-based
Mus musculus [27] = assay: Antifibrotic activity in bleomycin-induced C57BL/6 mouse model of pulmonary fibrosis assessed as increase in number of interstitial macrophages in lungs at 2 ug/mouse, ip administered for 11 days and measured on day 12 post treatment by flow cytometric analysis; format: functional, organism-based
[28] = target: 3',5'-cyclic-AMP phosphodiesterase 4D (Homo sapiens) (UniProt Q08499); assay: Inhibition of PDE4D2 (unknown origin) at 10 uM relative to control
Chitotriosidase-1 [29] = target: T3, Chitotriosidase-1; assay: Inhibition of human CHIT1 catalytic domain overexpressed in Pichia pastoris at 50 uM using 4MU-(GlcNAc)2 as substrate after 30 mins by fluorescence based microplate reader analysis relative to control
Target sequence in this assay (Q13231 22-466 limits assumed): as the sequence (Q13231 22-466 limits assumed) above

Chitinase (Ostrinia furnacalis), sequence (Q4AE59 as listed by the source): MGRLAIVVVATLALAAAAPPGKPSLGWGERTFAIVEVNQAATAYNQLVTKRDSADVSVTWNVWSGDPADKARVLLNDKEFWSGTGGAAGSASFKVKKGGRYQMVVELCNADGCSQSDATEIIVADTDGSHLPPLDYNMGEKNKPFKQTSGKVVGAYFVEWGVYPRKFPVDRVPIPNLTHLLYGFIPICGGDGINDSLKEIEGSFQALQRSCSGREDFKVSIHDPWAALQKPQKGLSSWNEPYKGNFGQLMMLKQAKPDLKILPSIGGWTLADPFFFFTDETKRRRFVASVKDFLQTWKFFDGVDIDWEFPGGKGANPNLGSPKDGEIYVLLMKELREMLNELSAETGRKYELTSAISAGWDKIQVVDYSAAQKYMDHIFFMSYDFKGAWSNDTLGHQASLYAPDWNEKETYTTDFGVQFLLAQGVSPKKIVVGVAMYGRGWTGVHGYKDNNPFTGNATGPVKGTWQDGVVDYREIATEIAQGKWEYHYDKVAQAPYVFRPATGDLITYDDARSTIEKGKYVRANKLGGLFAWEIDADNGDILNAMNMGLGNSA
T5 sequence (Q4AE59 whole entry, the tested form may be a part): as the sequence (Q4AE59 as listed by the source) above
Chitotriosidase-1 (Mus musculus), sequence (Q9D7Q1 22-464 limits assumed): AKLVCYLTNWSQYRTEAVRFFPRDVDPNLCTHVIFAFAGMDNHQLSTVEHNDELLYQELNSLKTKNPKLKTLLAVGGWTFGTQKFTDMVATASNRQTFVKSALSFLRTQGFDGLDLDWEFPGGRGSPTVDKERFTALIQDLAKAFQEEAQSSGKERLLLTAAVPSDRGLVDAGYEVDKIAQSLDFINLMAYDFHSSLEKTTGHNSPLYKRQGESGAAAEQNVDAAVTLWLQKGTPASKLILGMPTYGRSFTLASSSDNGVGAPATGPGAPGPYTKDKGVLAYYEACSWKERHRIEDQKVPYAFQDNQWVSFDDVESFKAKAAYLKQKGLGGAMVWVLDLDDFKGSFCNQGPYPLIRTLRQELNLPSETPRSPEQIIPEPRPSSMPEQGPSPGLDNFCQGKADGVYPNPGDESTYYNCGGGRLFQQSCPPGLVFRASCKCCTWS
Chitotriosidase-1 (Mus musculus, UniProt Q9D7Q1), sequence (Q9D7Q1 whole entry, the tested form may be a part): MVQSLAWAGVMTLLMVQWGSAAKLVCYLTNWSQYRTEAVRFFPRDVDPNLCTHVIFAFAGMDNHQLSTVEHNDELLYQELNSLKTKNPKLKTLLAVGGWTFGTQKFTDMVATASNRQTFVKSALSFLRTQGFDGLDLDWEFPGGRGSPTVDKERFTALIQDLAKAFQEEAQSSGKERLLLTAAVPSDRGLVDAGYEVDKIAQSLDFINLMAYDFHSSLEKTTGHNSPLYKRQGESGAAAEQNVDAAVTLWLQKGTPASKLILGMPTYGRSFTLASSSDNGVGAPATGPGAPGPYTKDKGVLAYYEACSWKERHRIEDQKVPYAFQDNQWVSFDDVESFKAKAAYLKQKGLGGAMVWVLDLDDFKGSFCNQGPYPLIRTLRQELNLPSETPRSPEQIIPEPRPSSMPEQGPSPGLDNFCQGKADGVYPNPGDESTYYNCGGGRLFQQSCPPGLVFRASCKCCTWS
3',5'-cyclic-AMP phosphodiesterase 4D (Homo sapiens), sequence (Q08499 whole entry, the tested form may be a part): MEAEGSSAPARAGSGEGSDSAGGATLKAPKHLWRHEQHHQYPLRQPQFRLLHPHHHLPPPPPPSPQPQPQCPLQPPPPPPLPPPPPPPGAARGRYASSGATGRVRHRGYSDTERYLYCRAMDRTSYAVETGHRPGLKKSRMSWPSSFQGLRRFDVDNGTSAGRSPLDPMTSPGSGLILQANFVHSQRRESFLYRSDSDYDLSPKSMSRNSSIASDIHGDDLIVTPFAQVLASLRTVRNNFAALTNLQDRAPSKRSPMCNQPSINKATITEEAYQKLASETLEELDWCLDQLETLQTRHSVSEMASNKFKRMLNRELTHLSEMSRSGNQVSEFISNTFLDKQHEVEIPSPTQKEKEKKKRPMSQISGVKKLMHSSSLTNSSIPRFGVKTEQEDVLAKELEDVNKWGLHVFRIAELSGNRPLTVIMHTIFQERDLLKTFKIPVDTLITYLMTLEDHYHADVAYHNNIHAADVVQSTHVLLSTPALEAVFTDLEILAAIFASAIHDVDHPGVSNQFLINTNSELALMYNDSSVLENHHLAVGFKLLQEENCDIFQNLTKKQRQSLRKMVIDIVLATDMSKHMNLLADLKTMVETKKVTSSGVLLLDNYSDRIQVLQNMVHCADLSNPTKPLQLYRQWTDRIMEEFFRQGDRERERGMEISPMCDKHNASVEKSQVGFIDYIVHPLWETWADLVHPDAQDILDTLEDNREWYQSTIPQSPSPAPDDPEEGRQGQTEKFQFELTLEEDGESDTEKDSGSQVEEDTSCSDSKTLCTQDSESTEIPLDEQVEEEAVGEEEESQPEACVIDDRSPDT
Acidic mammalian chitinase (Mus musculus, UniProt Q91XA9), sequence (Q91XA9 whole entry, the tested form may be a part): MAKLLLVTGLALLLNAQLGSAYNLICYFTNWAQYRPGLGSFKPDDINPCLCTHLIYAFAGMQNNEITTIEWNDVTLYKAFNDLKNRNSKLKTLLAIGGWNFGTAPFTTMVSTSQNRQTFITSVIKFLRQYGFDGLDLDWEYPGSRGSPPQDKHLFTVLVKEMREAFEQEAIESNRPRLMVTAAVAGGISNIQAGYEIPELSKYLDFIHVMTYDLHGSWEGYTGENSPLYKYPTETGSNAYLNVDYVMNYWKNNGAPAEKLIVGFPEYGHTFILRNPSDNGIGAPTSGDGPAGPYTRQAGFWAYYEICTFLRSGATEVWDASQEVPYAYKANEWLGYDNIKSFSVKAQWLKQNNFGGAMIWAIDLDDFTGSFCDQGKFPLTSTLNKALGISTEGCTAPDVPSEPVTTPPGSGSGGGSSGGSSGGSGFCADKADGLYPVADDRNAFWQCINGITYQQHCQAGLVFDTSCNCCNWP

| Compound | inhibition [1] | inhibition [2] | inhibition [3] | inhibition (Chitotriosidase-1 [4]) | also measured |
| --- | --- | --- | --- | --- | --- |
| COC(=O)c1cc2c(=O)n3ccccc3nc2n(Cc2cccnc2)c1=N | inactive | inactive | inactive | inactive |  |
| Cc1cccn2c(=O)c3cc(C(=O)NCc4cccnc4)c(=N)n(Cc4ccco4)c3nc12 | Active | Active | Active | Active |  |
| Cc1cccn2c(=O)c3cc(C#N)c(=N)n(Cc4cccnc4)c3nc12 | inactive | inactive | inactive | inactive |  |
| COCCCn1c(=N)c(C(=O)NCc2ccc(OC)cc2)cc2c(=O)n3ccccc3nc21 | inactive | inactive | inactive | inactive |  |
| COCCCn1c(=N)c(C(=O)NCc2cccnc2)cc2c(=O)n3ccccc3nc21 | inactive | inactive | inactive | inactive |  |
| Cc1cccn2c(=O)c3cc(C(=O)NCc4cccnc4)c(=N)n(CC4CCCO4)c3nc12 (configuration not stated) | Active | Active | Active | Active | Kd (Chitinase B [5]): 190 nM; Ka [6]: 5.1e+06 M⁻¹; Kd (Chitotriosidase-1 [7]): 1120 nM; Ka (Chitotriosidase-1 [8]): 895000 M⁻¹; Ki (Chitinase B [9]): 58 nM; Ki (Chitinase [10]): 9 nM; Ki [11]: 1380 nM; Ki (Chitotriosidase-1 [12]): 1940 nM; Ki [13]: 9720 nM; Ki (Chitotriosidase-1 [14]): 1120 nM; Kd (Chitinase [15]): 85 nM |
| Cc1cccn2c(=O)c3cc(C#N)c(=N)n(Cc4ccccc4)c3nc12 | inactive | inactive | inactive | inactive |  |
| COCCn1c(=N)c(C(=O)NCCN2CCCCC2)cc2c(=O)n3ccccc3nc21 | inactive | inactive | inactive | inactive |  |
| N=c1c(C(=O)NCC2CCCO2)cc2c(=O)n3ccccc3nc2n1Cc1ccco1 (configuration not stated) |  |  |  |  | inhibition (Chitotriosidase-1 [29]): 100% |
| COCCCn1c(=N)c(C(=O)NCc2ccc(F)cc2)cc2c(=O)n3ccccc3nc21 | inactive | inactive | inactive | inactive |  |
| COCCCn1c(=N)c(-c2nc3ccccc3s2)cc2c(=O)n3ccccc3nc21 | inactive | inactive | inactive | inactive |  |
| Cc1cccn2c(=O)c3cc(C(=O)NCc4cccnc4)c(=N)n(Cc4ccc(F)cc4)c3nc12 | Active | Active | Active | Active |  |
| C=CCn1c(=N)c(C(=O)N2CCN(C)CC2)cc2c(=O)n3cccc(C)c3nc21 | inactive | inactive | inactive | inactive |  |

Further lines, with some results ahead:

| inhibition [1] | inhibition [2] | inhibition [3] | inhibition (Chitotriosidase-1 [4]) | Compound | also measured |
| --- | --- | --- | --- | --- | --- |
| inactive | inactive | inactive | inactive | CNC(=O)c1cc2c(=O)n3cc(C)ccc3nc2n(Cc2cccnc2)c1=N |  |
| inactive | inactive | inactive | inactive | COCCCn1c(=N)c(C(=O)NCc2ccc(C)cc2)cc2c(=O)n3ccccc3nc21 |  |
| Active | Active | Active | Active | COCCCn1c(=N)c(C(=O)N[C@@H](C)c2ccccc2)cc2c(=O)n3ccccc3nc21 |  |
| inactive | inactive | inactive | inactive | N=c1c(C(=O)NC2CCCCC2)cc2c(=O)n3ccccc3nc2n1Cc1cccnc1 |  |
| Active | Active | Active | Active | Cc1ccc2nc3c(cc(C(=O)N[C@H](C)c4ccccc4)c(=N)n3C[C@H]3CCCO3)c(=O)n2c1 |  |
| inactive | inactive | inactive | inactive | CCOC(=O)c1cc2c(=O)n3ccccc3nc2n(Cc2ccco2)c1=N |  |
| Active | Active | Active | Active | C[C@@H](NC(=O)c1cc2c(=O)n3ccccc3nc2n(C[C@H]2CCCO2)c1=N)c1ccccc1 |  |
| Active | Active | Active | Active | CC(NC(=O)c1cc2c(=O)n3ccccc3nc2n(Cc2ccccc2)c1=N)c1ccccc1 (configuration not stated) | inhibition (INH) (Mus musculus [16]): 100%; inhibition [17]: 55%; inhibition [18]: 35%; Activity (Mus musculus [19]): inactive; Activity (Mus musculus [20]): inactive; Activity (Mus musculus [21]): inactive; Activity (Mus musculus [22]): inactive; Activity (Mus musculus [23]): inactive; Activity (Mus musculus [24]): Active; Activity (Mus musculus [25]): Active; Activity (Mus musculus [26]): Active; Activity (Mus musculus [27]): Active; inhibition [28]: 87.8% |
| Active | Active | Active | Active | Cc1cccn2c(=O)c3cc(C(=O)N[C@H](C)c4ccccc4)c(=N)n(C[C@H]4CCCO4)c3nc12 |  |
| Active | Active | Active | Active | Cc1ccc2nc3c(cc(C(=O)NCc4cccnc4)c(=N)n3C[C@H]3CCCO3)c(=O)n2c1 |  |
| Active | Active | Active | Active | N=c1c(C(=O)NCc2cccnc2)cc2c(=O)n3ccccc3nc2n1Cc1ccccc1 |  |
